Data set [1] in a line: Solubility of Compound A. In kind it is physicochemical.
A short description of data set [2]: Oral absorption window in the gastrointestinal tract. The class given is in vivo. As to conditions: given orally; upper part of the gastrointestinal tract.

Each structure is given as a SMILES string.

In the case of `O=C(Cc1c(Cl)c[n+]([O-])cc1Cl)c1ccc(OC(F)F)c2c1OC1(CCS(=O)(=O)CC1)O2` [Compound A, 2-(3,5-Dichloro-1-oxido-pyridine-4-yl)-1-(7-difluoro-methoxy-2′,3′,5′,6-tetrahydro-spiro[1,3-benzodioxole-2,4-(4H)-thiopyran-1′,1′-dioxide]-4-yl)ethanone], the Solubility result in data set [1] is given as “poorly soluble”. Besides, the Absorption window result in data set [2] is given as “very narrow absorption window”.

The record behind these values is patent publication US20210386674A1, “MODIFIED RELEASE TABLET FORMULATIONS CONTAINING PHOSPHODIESTERASE INHIBITOR” (UNION therapeutics A/S, priority 2019, published 2021).
